Like-named read-outs stand apart in the source and are kept apart here.
Biological target: T1, human GLP-1 receptor (Homo sapiens, UniProt P43220)
T1 construct: expressed in transfected cells; host or cells: BHK cells, clone FCW467-12A/KZ10-1 (parent line BHKTS13), further transfected with CRE luciferase
Test: In vitro potency (AlphaScreen cAMP, membranes)
Assay type: biochemical
Description: The purpose of this example is to test the activity, or potency, of the GLP-1 derivatives in vitro.
Purified plasma membranes from a stable transfected cell line, BHK467-12A (tk-ts13), expressing the human GLP-1 receptor were stimulated with the GLP-1 analogue or derivative in question, and the potency of cAMP production was measured using the AlphaScreen™ cAMP Assay Kit from Perkin Elmer Life Sciences. The basic principle of the AlphaScreen Assay is a competition between endogenous cAMP and exogenously added biotin-cAMP. The capture of cAMP is achieved by using a specific antibody conjugated to acceptor beads.
A stable transfected cell line and a high expressing clone were selected for screening. The cells were grown at 5% CO2 in DMEM, 5% FCS, 1% Pen/Strep (Penicillin/Streptomycin) and 0.5 mg/ml of the selection marker G418.
Cells at approximately 80% confluence were washed 2× with PBS and harvested with Versene (aqueous solution of the tetrasodium salt of ethylenediaminetetraacetic acid), centrifuged 5 min at 1000 rpm and the supernatant removed. The additional steps were all performed on ice. The cell pellet was homogenised by the Ultrathurax for 20-30 s in 10 ml of Buffer 1 (20 mM Na-HEPES, 10 mM EDTA, pH=7.4), centrifuged 15 min at 20,000 rpm and the pellet resuspended in 10 ml of Buffer 2 (20 mM Na-HEPES, 0.1 mM EDTA, pH=7.4). The suspension was homogenised for 20-30 s and centrifuged 15 min at 20,000 rpm. Suspension in Buffer 2, homogenisation and centrifugation was repeated once and the membranes were resuspended in Buffer 2. The protein concentration was determined and the membranes stored at −80° C. until use.
The assay was performed in flat-bottom 96-well plates (Costar cat. no:3693). The final volume per well was 50 μl.
AlphaScreen cAMP Assay Kit from Perkin Elmer Life Sciences (cat. No: 6760625M); containing Anti-cAMP Acceptor beads (10 U/μl), Streptavidin Donor beads (10 U/μl) and Biotinylated-cAMP (133 U/μl).
AlphaScreen Buffer, pH=7.4: 50 mM TRIS-HCl (Sigma, cat.no: T3253); 5 mM HEPES (Sigma, cat.no: H3375); 10 mM MgCl2, 6H2O (Merck, cat.no: 5833); 150 mM NaCl (Sigma, cat.no: S9625); 0.01% Tween (Merck, cat.no: 822184). The following was added to the AlphaScreen Buffer prior to use (final concentrations indicated): BSA (Sigma, cat. no. A7906): 0.1%; IBMX (Sigma, cat. no. 15879): 0.5 mM; ATP (Sigma, cat. no. A7699): 1 mM; GTP (Sigma, cat. no. G8877): 1 uM.
cAMP standard (dilution factor in assay=5): cAMP Solution: 5 μL of a 5 mM cAMP-stock+495 μL AlphaScreen Buffer.
Membranes were prepared from hGLP-1/BHK 467-12A cells with a concentration of 6 μg/well corresponding to 0.6 mg/ml (the amount of membranes used pr. well may vary)
“No membranes”: Acceptor Beads (15 μg/ml final) in AlphaScreen buffer
“6 μg/well membranes”: membranes+Acceptor Beads (15 μg/ml final) in AlphaScreen buffer
An aliquot (10 μl) of “No membranes” was added to the cAMP standard (per well in duplicate wells) and the positive and negative controls
An aliquot (10 μl) of “6 μg/well membranes” was added to GLP-1 and analogues (per well in duplicate or triplicate wells)
Pos. Control: 10 μl “no membranes”+10 μl AlphaScreen Buffer
Neg. Control: 10 μl “no membranes”+10 μl cAMP Stock Solution (50 μM)
As the beads are sensitive to direct light, any handling was in the dark (as dark as possible), or in green light. All dilutions were made on ice.
1. Make the AlphaScreen Buffer.
2. Dissolve and dilute the GLP-1/Analogues/cAMP standard in AlphaScreen Buffer.
3. Make the Donor Beads Solution by mixing streptavidin donor beads (2 units/well) and biotinylated cAMP (1.2 units/well) and incubate 20-30 min in the dark at room temperature
4. Add the cAMP/GLP-1/Analogues to the plate: 10 μl per well.
5. Prepare membrane/Acceptor Beads solution and add this to the plates: 10 μl per well.
6. Add the Donor Beads: 30 μl per well.
7. Wrap the plate in aluminum foil and incubate on the shaker for 3 hours (very slowly) at RT.

T1 sequence (P43220 24-463): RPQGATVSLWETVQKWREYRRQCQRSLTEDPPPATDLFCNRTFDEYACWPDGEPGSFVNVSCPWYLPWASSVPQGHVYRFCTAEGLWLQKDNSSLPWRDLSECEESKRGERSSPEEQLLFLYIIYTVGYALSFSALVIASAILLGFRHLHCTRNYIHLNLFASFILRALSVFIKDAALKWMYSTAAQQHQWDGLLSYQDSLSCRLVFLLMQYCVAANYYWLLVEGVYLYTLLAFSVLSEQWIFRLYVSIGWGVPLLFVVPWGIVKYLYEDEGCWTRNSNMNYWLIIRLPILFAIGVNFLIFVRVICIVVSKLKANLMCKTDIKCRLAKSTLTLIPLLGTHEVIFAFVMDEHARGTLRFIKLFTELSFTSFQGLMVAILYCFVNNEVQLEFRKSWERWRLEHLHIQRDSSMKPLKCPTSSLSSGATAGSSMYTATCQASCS

EC50 (cAMP formation in membranes from BHK467-12A cells expressing human GLP-1 receptor, read-out: In vitro potency (AlphaScreen) EC50) [pM]	Compound	EC50 [pM]
–	CC[C@H](C)[C@H](NC(=O)[C@H](Cc1ccccc1)NC(=O)[C@H](CCC(=O)O)NC(=O)[C@H](CCCCNC(=O)[C@@H](N)CCCCNC(=O)[C@@H](N)CCCCNC(=O)CC[C@H](NC(=O)CCCCCCCCCOc1ccc(C(=O)O)cc1)C(=O)O)NC(=O)[C@H](C)NC(=O)[C@H](C)NC(=O)[C@H](CCC(N)=O)NC(=O)CNC(=O)[C@H](CCC(=O)O)NC(=O)[C@H](CC(C)C)NC(=O)[C@H](Cc1ccc(O)cc1)NC(=O)[C@H](CO)NC(=O)[C@H](CO)NC(=O)[C@@H](NC(=O)[C@H](CC(=O)O)NC(=O)[C@H](CO)NC(=O)[C@@H](NC(=O)[C@H](Cc1ccccc1)NC(=O)[C@@H](NC(=O)CNC(=O)[C@H](CCC(=O)O)NC(=O)C(C)(C)NC(=O)[C@@H](N)Cc1c[nH]cn1)[C@@H](C)O)[C@@H](C)O)C(C)C)C(=O)N[C@@H](C)C(=O)N[C@@H](Cc1c[nH]c2ccccc12)C(=O)N[C@@H](CC(C)C)C(=O)N[C@H](C(=O)N[C@@H](CCCNC(=N)N)C(=O)NCC(=O)N[C@@H](CCCNC(=N)N)C(=O)N[C@@H](CCCCNC(=O)[C@@H](N)CCCCNC(=O)[C@@H](N)CCCCNC(=O)CC[C@H](NC(=O)CCCCCCCCCOc1ccc(C(=O)O)cc1)C(=O)O)C(=O)O)C(C)C [Example 1, N^ε26-[(2S)-2-amino-6-[[(2S)-2-amino-6-[[(4S)-4-carboxy-4-[10-(4-carboxyphenoxy)decanoylamino]butanoyl]amino]hexanoyl]amino]hexanoyl], N^ε37-[(2S)-2-amino-6-[[(2S)-2-amino-6-[[(4S)-4-carboxy-4-[10-(4-carboxyphenoxy)decanoylamino]butanoyl]amino]hexanoyl]amino]hexanoyl]-[Aib^8, Arg^34,Lys^37]-GLP-1-(7-37)-peptide]	59
44	CC[C@H](C)[C@H](NC(=O)[C@H](Cc1ccccc1)NC(=O)[C@H](CCC(=O)O)NC(=O)[C@H](CCCCNC(=O)[C@@H](N)CCCCNC(=O)[C@@H](N)CCCCNC(=O)CC[C@H](NC(=O)CCCCCCCCCCCCC(=O)O)C(=O)O)NC(=O)[C@H](C)NC(=O)[C@H](C)NC(=O)[C@H](CCC(N)=O)NC(=O)CNC(=O)[C@H](CCC(=O)O)NC(=O)[C@H](CC(C)C)NC(=O)[C@H](Cc1ccc(O)cc1)NC(=O)[C@H](CO)NC(=O)[C@H](CO)NC(=O)[C@@H](NC(=O)[C@H](CC(=O)O)NC(=O)[C@H](CO)NC(=O)[C@@H](NC(=O)[C@H](Cc1ccccc1)NC(=O)[C@@H](NC(=O)CNC(=O)[C@H](CCC(=O)O)NC(=O)C(C)(C)NC(=O)[C@@H](N)Cc1c[nH]cn1)[C@@H](C)O)[C@@H](C)O)C(C)C)C(=O)N[C@@H](C)C(=O)N[C@@H](Cc1c[nH]c2ccccc12)C(=O)N[C@@H](CC(C)C)C(=O)N[C@H](C(=O)N[C@@H](CCCNC(=N)N)C(=O)NCC(=O)N[C@@H](CCCNC(=N)N)C(=O)N[C@@H](CCCCNC(=O)[C@@H](N)CCCCNC(=O)[C@@H](N)CCCCNC(=O)CC[C@H](NC(=O)CCCCCCCCCCCCC(=O)O)C(=O)O)C(=O)O)C(C)C [Example 2, N^ε26-[(2S)-2-amino-6-[[(2S)-2-amino-6-[[(4S)-4-carboxy-4-(13-carboxytridecanoylamino)butanoyl]amino]hexanoyl]amino]hexanoyl], N^ε37-[(2S)-2-amino-6-[[(2S)-2-amino-6-[[(4S)-4-carboxy-4-(13-carboxytridecanoylamino)butanoyl]amino]hexanoyl]amino]hexanoyl]-[Aib^8,Arg^34,Lys^37]-GLP-1-(7-37)-peptide]	–
–	CC[C@H](C)[C@H](NC(=O)[C@H](Cc1ccccc1)NC(=O)[C@H](CCC(=O)O)NC(=O)[C@H](CCCCNC(=O)[C@@H](N)CCCCNC(=O)COCCOCCNC(=O)COCCOCCNC(=O)CC[C@H](NC(=O)CCCCCCCCCOc1ccc(C(=O)O)cc1)C(=O)O)NC(=O)[C@H](C)NC(=O)[C@H](C)NC(=O)[C@H](CCC(N)=O)NC(=O)CNC(=O)[C@H](CCC(=O)O)NC(=O)[C@H](CC(C)C)NC(=O)[C@H](Cc1ccc(O)cc1)NC(=O)[C@H](CO)NC(=O)[C@H](CO)NC(=O)[C@@H](NC(=O)[C@H](CC(=O)O)NC(=O)[C@H](CO)NC(=O)[C@@H](NC(=O)[C@H](Cc1ccccc1)NC(=O)[C@@H](NC(=O)CNC(=O)[C@H](CCC(=O)O)NC(=O)C(C)(C)NC(=O)[C@@H](N)Cc1c[nH]cn1)[C@@H](C)O)[C@@H](C)O)C(C)C)C(=O)N[C@@H](C)C(=O)N[C@@H](Cc1c[nH]c2ccccc12)C(=O)N[C@@H](CC(C)C)C(=O)N[C@H](C(=O)N[C@@H](CCCNC(=N)N)C(=O)NCC(=O)N[C@@H](CCCNC(=N)N)C(=O)N[C@@H](CCCCNC(=O)[C@@H](N)CCCCNC(=O)COCCOCCNC(=O)COCCOCCNC(=O)CC[C@H](NC(=O)CCCCCCCCCOc1ccc(C(=O)O)cc1)C(=O)O)C(=O)O)C(C)C [Example 5]	33
–	CC[C@H](C)[C@H](NC(=O)[C@H](Cc1ccccc1)NC(=O)[C@H](CCC(=O)O)NC(=O)[C@H](CCCCNC(=O)[C@@H](N)CCCCNC(=O)[C@@H](N)CCCCNC(=O)CC[C@H](NC(=O)CCCCCCCCCCCOc1ccc(C(=O)O)cc1)C(=O)O)NC(=O)[C@H](C)NC(=O)[C@H](C)NC(=O)[C@H](CCC(N)=O)NC(=O)CNC(=O)[C@H](CCC(=O)O)NC(=O)[C@H](CC(C)C)NC(=O)[C@H](Cc1ccc(O)cc1)NC(=O)[C@H](CO)NC(=O)[C@H](CO)NC(=O)[C@@H](NC(=O)[C@H](CC(=O)O)NC(=O)[C@H](CO)NC(=O)[C@@H](NC(=O)[C@H](Cc1ccccc1)NC(=O)[C@@H](NC(=O)CNC(=O)[C@H](CCC(=O)O)NC(=O)C(C)(C)NC(=O)[C@@H](N)Cc1c[nH]cn1)[C@@H](C)O)[C@@H](C)O)C(C)C)C(=O)N[C@@H](C)C(=O)N[C@@H](Cc1c[nH]c2ccccc12)C(=O)N[C@@H](CC(C)C)C(=O)N[C@H](C(=O)N[C@@H](CCCNC(=N)N)C(=O)NCC(=O)N[C@@H](CCCNC(=N)N)C(=O)N[C@@H](CCCCNC(=O)[C@@H](N)CCCCNC(=O)[C@@H](N)CCCCNC(=O)CC[C@H](NC(=O)CCCCCCCCCCCOc1ccc(C(=O)O)cc1)C(=O)O)C(=O)O)C(C)C [Example 7, N^ε26-[(2S)-2-amino-6-[[(2S)-2-amino-6-[[(4S)-4-carboxy-4-[12-(4-carboxyphenoxy)dodecanoylamino]butanoyl]amino]hexanoyl]amino]hexanoyl], N^ε37-[(2S)-2-amino-6-[[(2S)-2-amino-6-[[(4S)-4-carboxy-4-[12-(4-carboxyphenoxy)dodecanoylamino]butanoyl]amino]hexanoyl]amino]hexanoyl]-[Aib^8,Arg^34,Lys^37]-GLP-1-(7-37)-peptide]	136

From patent US10604554B2, “Double-acylated GLP-1 derivatives” (Novo Nordisk A/S, priority 2012, dated 2020)
